pIC50: −log10 of the molar value. Bounds are passed on as bounds.

We go through 17 compounds from ChEMBL document CHEMBL6083261, “Structure-guided design and photochemical synthesis of new carbamo(dithioperoxo)thioates with improved potencies to SARS-CoV-2 3CLpro” (Bioorg Med Chem, 2024).

Series [1] addresses T1, Replicase polyprotein 1ab (Severe acute respiratory syndrome coronavirus 2, UniProt P0DTD1). Briefly: Inhibition of SARS-CoV-2 N/C terminal 6his tagged 3CL protease extracted from Escherichia coli BL21(DE3) using CA-AVLQSGFR-Lys(Dnp)-Lys-NH2 as fluorescent substrate preincubated for 1 hr followed by substrate addition and measured after 20 mins by FRET analysis.
Series [2] addresses T1, Replicase polyprotein 1ab. Briefly: Inhibition of SARS-CoV-2 PL protease.
The target of series [3] is T1, Replicase polyprotein 1ab. Briefly: Inhibition of SARS-CoV-2 RdRp.
The subject of series [4] is Vero C1008. Briefly: Cytotoxicity against African green monkey Vero E6 cells at 1 mM incubated for 24 hrs by CCK-8 method. The conditions noted are these: chlorocebus sabaeus, vero c1008, 24 h, 1000 µM. The series is classed as toxicity, cell-based.
Series [5] concerns the target Replicase polyprotein 1ab (Severe acute respiratory syndrome coronavirus 2) (UniProt P0DTD1). Briefly: Inhibition of SARS-CoV-2 N/C terminal 6his tagged 3CL protease extracted from Escherichia coli BL21(DE3) using CA-AVLQSGFR-Lys(Dnp)-Lys-NH2 as fluorescent substrate preincubated for 10 mins followed by substrate addition and measured every 10 sec for 10 mins in presence of DTT by FRET analysis relative to control. Details: concentration or dose not given beside the values. The conditions noted are these: time 20.0 min.

Series [6] has the same target. Briefly: Inhibition of SARS-CoV-2 N/C terminal 6his tagged 3CL protease extracted from Escherichia coli BL21(DE3) using CA-AVLQSGFR-Lys(Dnp)-Lys-NH2 as fluorescent substrate preincubated for 1 hr followed by substrate addition and measured after 20 mins by FRET analysis relative to control. Set-up: concentration or dose not given beside the values. The conditions noted are these: time 80.0 min.

For `COc1ccc(SSC(=S)N2CCC(O)CC2)cc1`, the pIC50 is 6.64 in series [1], 6.82 in series [2] and 5.07 in series [3]. Besides, the Activity result in series [4] is on record as “Toxic”. Besides, the inhibition in series [5] is 60%; in series [6], over 95%.
For `OC1CCN(C(=S)SSCc2ccccc2)CC1`, the negative logarithm of the IC50 (pIC50) in series [1] is 6.60; in series [2], 6.48; in series [3], 4.67. Besides, the inhibition in series [5] was 60%; in series [6], over 95%.
With `CCN(CC)C(=S)SSc1ccccc1`, the pIC50 in series [1] was 2.97; in series [2] it was under 4.00; in series [3], under 4.00.
Consider `OC1CCN(C(=S)SSc2ccc(C(F)(F)F)cc2)CC1`, for which the negative logarithm of the IC50 (pIC50) in series [1] is 6.85; in series [2], 7.40; in series [3], 4.80. The Activity result in series [4] is “Toxic”. Moreover, the values for the inhibition in series [5] and in series [6] were 60% and over 95%, respectively.
On to `S=C(SSc1ccccc1)N1CCOCC1`, for which the pIC50 was 6.18 in series [1], 5.76 in series [2] and under 4.00 in series [3].
As for `S=C(SSC(=S)N1CCCCC1)N1CCCCC1` [BIS(PIPERIDINYLTHIOCARBONYL)DISULFIDE], the pIC50 in series [1] is 5.83; in series [2] it was 7.15; in series [3] it was 4.99.
As to `COC(=O)C1CCCN1C(=S)SSc1ccccc1` (stereo not given), the figures for the pIC50 in series [1], in series [2] and in series [3] were 6.27, 6.41 and 4.24, respectively.
Take `OC1CCN(C(=S)SSc2ccc(F)cc2)CC1`: the pIC50 in series [1] is 6.72; in series [2], 7.00; in series [3], 5.01. Besides, in series [4], the Activity result is listed as “Toxic”. The inhibition was 60% in series [5] and over 95% in series [6].
In the case of `S=C(SSc1ccccc1)N1CCCCC1`, the pIC50 in series [1] is 6.19; in series [2] it was 5.60; in series [3] it was under 4.00.
On the same counts, the results for `S=C(SSc1ccccc1)N1CCCC1` are 6.40, 6.66 and 4.92.
The corresponding values for `S=C(SSC(=S)N1CCOCC1)N1CCOCC1` are 5.91, 6.41 and 4.27.
As for `OC1CCN(C(=S)SSc2ccccc2)CC1`, the negative logarithm of the IC50 (pIC50) is 6.46 in series [1], under 4.00 in series [2] and under 4.00 in series [3]. Also, the Activity entry in series [4] was “Toxic”. The inhibition in series [5] was 60%; in series [6], over 95%.
Take `OC1CCN(C(=S)SSC(=S)N2CCC(O)CC2)CC1`: the pIC50 is 6.04 in series [1], 6.24 in series [2] and 4.08 in series [3]. In addition, the Activity entry in series [4] was “Toxic”. Besides, in series [5], the inhibition was determined as 60%.
In the case of `COC(=O)CCSSC(=S)N1CCC(O)CC1`, the pIC50 is 6.33 in series [1], under 4.00 in series [2] and under 4.00 in series [3]. The Activity entry in series [4] is on record as “Toxic”. Besides, the inhibition in series [6] is over 95%.
As to `Oc1ccc(SSC(=S)N2CCC(O)CC2)cc1`, the negative-log IC50 (pIC50) in series [1] was 6.52; in series [2], 5.11; in series [3], 4.01. Also, the Activity entry in series [4] was “Toxic”. For the same compound, the values for the inhibition in series [5] and in series [6] were 60% and over 95%, respectively.
As for `S=C(SSC(=S)N1CCCC1)N1CCCC1` [BIS(PYRROLIDINYLTHIOCARBONYL)DISULFIDE], the negative logarithm of the IC50 (pIC50) in series [1] was 5.87; in series [2], 7.22; in series [3] it was 5.05.
Turning to `O=[N+]([O-])c1ccc(SSC(=S)N2CCC(O)CC2)cc1`, the negative-log IC50 (pIC50) in series [1] was 6.62; in series [2], 6.49; in series [3], 4.34. For the same compound, the Activity entry in series [4] is “Toxic”. Besides, the inhibition is 60% in series [5] and over 95% in series [6].
